Experimental data reported in PMC3108484 (Frontiers in Pharmacology, 2011).

Columns and labels:
Human B2 = Human B2 (Homo sapiens, UniProt P30411); assay: Radioligand binding: Human B2
Human A2A = Human A2A (Homo sapiens, UniProt P29274); assay: Radioligand binding: Human A2A
Human VPAC2 (VIP2) = Human VPAC2 (VIP2) (Homo sapiens, UniProt P41587); assay: Radioligand binding: Human VPAC2
Human PDE4 = assay: Enzyme inhibition: Human PDE4; conditions: [3H]-cAMP + cAMP 1 μM, TD-8954 1 μM
Human M1 = Human M1 (Homo sapiens, UniProt P11229); assay: Radioligand binding: Human M1
Human D2S = Human D2S (Homo sapiens, UniProt P14416); assay: Radioligand binding: Human D2S
Human CGRP = Human CGRP (Homo sapiens, UniProt O60894+Q16602); assay: Radioligand binding: Human CGRP
Human CCK1 (CCKA) = Human CCK1 (CCKA) (Homo sapiens, UniProt P32238); assay: Radioligand binding: Human CCK1
Human AT1 = Human AT1 (Homo sapiens, UniProt P30556); assay: Radioligand binding: Human AT1
Rat α1 (non-selective) = assay: Radioligand binding: Rat α1; conditions: [3H]-prazosin 0.25 nM
Rat AMPA = assay: Radioligand binding: Rat AMPA; conditions: [3H]-AMPA 8 nM
Human M3 = Human M3 (Homo sapiens, UniProt P20309); assay: Radioligand binding: Human M3
[1] = target: Human acetylcholinesterase (Homo sapiens, UniProt P22303); assay: Enzyme inhibition: Human acetylcholinesterase
Human 5-HT2B = Human 5-HT2B (Homo sapiens, UniProt P41595); assay: Radioligand binding: Human 5-HT2B
[2] = target: Rat galanin (non-selective); assay: Radioligand binding: Rat galanin; conditions: [125I]-galanin 0.05 nM
Rat BB (non-selective) = assay: Radioligand binding: Rat BB; conditions: [125I]-[Tyr4]-bombesin 0.01 nM
Human COX2 = Human COX2 (Homo sapiens, UniProt P35354); assay: Enzyme inhibition: Human COX2
Rat PACAP (PAC1) = Rat PACAP (PAC1) (Rattus norvegicus, UniProt P32215); assay: Radioligand binding: Rat PACAP
Human 5-HT3a = Human 5-HT3a (Homo sapiens, UniProt P46098); assay: Radioligand binding: Human 5-HT3a
Human 5-HT5a = Human 5-HT5a (Homo sapiens, UniProt P47898); assay: Radioligand binding: Human 5-HT5a
Rat σ (non-selective) = assay: Radioligand binding: Rat σ; conditions: [3H]-DTG 8 nM
Rat kainate = assay: Radioligand binding: Rat kainate; conditions: [3H]-kainic acid 5 nM
Human D1 = Human D1 (Homo sapiens, UniProt P21728); assay: Radioligand binding: Human D1
Human VPAC1 (VIP1) = Human VPAC1 (VIP1) (Homo sapiens, UniProt P32241); assay: Radioligand binding: Human VPAC1
[3] = target: Mouse sst (non-selective); assay: Radioligand binding: Mouse sst; conditions: [125I]-Tyr11-somatostatin 0.05 nM
[4] = target: Rat α7 nAChR (α-BGTX-sensitive) (Rattus norvegicus, UniProt Q05941); assay: biochemical; type: binding
[5] = target: Rat Ca2+ channel (L, verapamil site); assay: Radioligand binding: Rat Ca2+ channel; conditions: [3H]-(−)D 888 0.5 nM
Human NK2 = Human NK2 (Homo sapiens, UniProt P21452); assay: Radioligand binding: Human NK2
Human 5-HT2A = Human 5-HT2A (Homo sapiens, UniProt P28223); assay: Radioligand binding: Human 5-HT2A
conscious guinea pigs = assay: Guinea pig colonic transit of carmine red dye; type: in vivo; conditions: s.c., maximum effect already achieved
Rat NT (non-selective) = assay: Radioligand binding: Rat NT; conditions: [125I]-Tyr3-neurotensin 0.05 nM
Rat P2Y = assay: Radioligand binding: Rat P2Y; conditions: [35S]-dATP αS 10 nM
Human β2 = Human β2 (Homo sapiens, UniProt P07550); assay: Radioligand binding: Human β2
[6] = read-out: % Inhibition of specific binding (1 μM)
[7] = read-out: % Inhibition of control (1 μM)

Chain of Human D1 (P21728 whole entry): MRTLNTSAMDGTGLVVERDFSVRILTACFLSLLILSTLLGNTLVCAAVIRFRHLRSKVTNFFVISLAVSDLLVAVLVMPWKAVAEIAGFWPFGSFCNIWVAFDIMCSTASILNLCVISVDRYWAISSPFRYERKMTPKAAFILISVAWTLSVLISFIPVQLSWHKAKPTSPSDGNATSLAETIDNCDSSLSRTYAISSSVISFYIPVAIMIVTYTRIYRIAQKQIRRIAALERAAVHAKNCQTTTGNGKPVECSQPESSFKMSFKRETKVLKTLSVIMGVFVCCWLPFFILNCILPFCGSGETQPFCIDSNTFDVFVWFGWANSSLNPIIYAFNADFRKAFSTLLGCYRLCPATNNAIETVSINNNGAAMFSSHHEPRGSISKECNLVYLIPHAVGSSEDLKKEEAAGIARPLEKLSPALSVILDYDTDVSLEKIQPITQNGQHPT
Chain of Human VPAC1 (VIP1) (P32241 31-457): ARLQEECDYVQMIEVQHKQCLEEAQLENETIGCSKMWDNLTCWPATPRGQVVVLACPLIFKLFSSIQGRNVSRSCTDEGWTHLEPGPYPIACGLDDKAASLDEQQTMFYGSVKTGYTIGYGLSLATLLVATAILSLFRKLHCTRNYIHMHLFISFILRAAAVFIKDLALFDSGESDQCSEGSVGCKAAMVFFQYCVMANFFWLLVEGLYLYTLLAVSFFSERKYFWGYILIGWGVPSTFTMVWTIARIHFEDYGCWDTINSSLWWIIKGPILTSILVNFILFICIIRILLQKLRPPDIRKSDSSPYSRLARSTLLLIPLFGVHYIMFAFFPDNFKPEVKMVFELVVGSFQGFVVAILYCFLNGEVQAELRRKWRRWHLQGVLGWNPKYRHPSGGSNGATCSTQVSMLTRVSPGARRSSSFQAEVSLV
Chain of Human D2S (P14416 1-414 isoform P14416-2): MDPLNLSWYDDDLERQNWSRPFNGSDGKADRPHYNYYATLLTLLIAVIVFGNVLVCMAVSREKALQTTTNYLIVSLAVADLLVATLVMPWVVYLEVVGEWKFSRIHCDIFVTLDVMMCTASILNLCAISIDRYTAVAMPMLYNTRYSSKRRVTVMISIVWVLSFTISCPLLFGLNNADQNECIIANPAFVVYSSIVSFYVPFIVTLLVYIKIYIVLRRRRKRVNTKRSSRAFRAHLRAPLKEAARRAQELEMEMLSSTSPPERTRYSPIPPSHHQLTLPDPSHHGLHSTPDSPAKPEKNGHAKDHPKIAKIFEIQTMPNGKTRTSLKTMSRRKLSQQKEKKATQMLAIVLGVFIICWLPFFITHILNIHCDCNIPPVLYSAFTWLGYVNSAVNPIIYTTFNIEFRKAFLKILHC
Chain of Human VPAC2 (VIP2) (P41587 24-438): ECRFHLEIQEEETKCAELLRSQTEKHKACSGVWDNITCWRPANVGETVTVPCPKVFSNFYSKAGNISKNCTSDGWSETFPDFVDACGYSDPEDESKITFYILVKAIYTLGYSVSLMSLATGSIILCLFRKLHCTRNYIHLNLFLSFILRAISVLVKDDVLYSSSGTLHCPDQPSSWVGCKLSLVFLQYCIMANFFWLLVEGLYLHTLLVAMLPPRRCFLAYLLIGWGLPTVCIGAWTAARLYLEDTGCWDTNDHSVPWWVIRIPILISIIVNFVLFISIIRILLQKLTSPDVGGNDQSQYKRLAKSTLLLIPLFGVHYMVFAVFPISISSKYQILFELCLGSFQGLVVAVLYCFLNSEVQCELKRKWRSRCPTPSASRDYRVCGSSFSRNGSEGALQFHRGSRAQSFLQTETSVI
Chain of Human acetylcholinesterase (P22303 32-614): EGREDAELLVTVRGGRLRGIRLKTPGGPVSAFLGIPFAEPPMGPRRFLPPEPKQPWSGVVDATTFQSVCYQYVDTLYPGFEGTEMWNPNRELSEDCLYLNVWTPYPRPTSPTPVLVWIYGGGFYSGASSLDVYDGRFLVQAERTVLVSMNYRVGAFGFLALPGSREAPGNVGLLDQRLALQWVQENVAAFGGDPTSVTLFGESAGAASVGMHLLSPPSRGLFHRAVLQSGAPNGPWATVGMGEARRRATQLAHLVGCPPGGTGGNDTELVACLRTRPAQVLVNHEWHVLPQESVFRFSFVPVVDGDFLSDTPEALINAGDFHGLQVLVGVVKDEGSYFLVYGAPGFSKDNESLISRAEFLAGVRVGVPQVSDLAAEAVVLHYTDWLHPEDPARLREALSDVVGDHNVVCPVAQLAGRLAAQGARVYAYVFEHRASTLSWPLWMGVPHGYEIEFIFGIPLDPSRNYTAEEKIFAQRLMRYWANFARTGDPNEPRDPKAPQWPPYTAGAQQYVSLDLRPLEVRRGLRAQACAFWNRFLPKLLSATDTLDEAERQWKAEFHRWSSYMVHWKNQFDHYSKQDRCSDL
Chain of Rat α7 nAChR (α-BGTX-sensitive) (Q05941 23-502): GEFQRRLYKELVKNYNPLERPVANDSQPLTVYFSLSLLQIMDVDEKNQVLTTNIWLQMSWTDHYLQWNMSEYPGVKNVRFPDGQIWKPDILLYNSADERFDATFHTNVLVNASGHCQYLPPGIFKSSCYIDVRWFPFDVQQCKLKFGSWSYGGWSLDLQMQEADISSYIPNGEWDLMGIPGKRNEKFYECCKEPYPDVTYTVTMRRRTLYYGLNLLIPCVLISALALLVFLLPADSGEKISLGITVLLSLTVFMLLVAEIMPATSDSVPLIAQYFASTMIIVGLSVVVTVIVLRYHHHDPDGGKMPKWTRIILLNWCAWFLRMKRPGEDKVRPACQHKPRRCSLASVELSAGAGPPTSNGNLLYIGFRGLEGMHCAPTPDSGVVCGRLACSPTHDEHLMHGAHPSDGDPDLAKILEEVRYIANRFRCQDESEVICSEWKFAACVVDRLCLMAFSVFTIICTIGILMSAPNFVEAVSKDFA
Chain of Human A2A (P29274 whole entry): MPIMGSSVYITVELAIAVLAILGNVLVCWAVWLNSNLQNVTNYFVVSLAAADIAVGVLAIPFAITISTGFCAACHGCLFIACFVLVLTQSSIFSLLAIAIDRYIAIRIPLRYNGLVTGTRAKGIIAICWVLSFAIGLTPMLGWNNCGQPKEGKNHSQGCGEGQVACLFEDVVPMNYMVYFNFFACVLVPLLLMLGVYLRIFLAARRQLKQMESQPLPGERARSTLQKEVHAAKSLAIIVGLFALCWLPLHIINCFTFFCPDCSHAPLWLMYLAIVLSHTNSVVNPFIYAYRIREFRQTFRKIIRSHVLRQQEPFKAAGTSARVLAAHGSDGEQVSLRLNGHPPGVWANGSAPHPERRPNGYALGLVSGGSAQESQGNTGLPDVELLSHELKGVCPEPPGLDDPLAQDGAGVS
Chain of Human COX2 (P35354 18-604): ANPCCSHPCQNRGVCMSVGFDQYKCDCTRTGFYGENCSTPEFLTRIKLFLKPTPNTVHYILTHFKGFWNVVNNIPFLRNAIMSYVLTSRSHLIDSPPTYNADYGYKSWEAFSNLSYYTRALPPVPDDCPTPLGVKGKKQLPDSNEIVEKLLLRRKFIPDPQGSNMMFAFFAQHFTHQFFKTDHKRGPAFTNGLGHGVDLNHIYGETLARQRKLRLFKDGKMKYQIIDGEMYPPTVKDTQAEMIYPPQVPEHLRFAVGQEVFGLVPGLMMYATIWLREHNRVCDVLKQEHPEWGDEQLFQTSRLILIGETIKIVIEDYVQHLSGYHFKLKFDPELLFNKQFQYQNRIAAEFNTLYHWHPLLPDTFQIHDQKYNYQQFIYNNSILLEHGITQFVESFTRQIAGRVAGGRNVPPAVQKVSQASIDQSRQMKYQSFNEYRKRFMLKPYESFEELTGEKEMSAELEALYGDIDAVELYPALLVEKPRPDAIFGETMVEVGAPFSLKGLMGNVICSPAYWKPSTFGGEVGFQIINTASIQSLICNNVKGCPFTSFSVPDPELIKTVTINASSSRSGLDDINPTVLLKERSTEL
Chain of Rat PACAP (PAC1) (P32215 20-523): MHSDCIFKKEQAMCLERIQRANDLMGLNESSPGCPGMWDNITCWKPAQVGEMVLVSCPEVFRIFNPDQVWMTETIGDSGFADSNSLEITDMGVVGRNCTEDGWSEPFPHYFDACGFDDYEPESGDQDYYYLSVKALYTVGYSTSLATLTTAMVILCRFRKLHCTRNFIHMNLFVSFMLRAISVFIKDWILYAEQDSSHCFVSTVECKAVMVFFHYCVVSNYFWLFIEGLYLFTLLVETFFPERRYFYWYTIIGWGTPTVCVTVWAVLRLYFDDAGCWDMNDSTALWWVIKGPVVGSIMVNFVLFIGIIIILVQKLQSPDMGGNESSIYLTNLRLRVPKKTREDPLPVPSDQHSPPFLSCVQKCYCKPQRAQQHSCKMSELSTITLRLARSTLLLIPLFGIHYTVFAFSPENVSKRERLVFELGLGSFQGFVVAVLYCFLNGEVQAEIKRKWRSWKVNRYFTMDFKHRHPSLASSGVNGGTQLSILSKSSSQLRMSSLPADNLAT
Chain of Human AT1 (P30556 whole entry): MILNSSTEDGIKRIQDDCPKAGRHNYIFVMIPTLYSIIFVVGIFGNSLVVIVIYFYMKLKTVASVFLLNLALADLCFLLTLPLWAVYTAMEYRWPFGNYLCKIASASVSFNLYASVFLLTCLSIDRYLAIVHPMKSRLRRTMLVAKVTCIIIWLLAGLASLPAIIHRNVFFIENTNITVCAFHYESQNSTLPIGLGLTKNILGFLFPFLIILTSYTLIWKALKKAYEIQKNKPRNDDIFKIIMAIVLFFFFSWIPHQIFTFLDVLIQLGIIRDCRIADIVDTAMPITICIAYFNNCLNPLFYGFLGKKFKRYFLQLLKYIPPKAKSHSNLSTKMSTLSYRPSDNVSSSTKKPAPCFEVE

## COC(=O)N1CCC(CN2CCC(CNC(=O)c3cccc4[nH]c(C(C)C)nc34)CC2)CC1 [TD-8954, 4-(4-{[(2-isopropyl-1H-benzoimidazole-4-carbonyl)amino]methyl}-piperidin-1-ylmethyl)piperidine-1-carboxylic acid methyl ester]
Human B2
  Ki: > 1000 nM
Human B2; [6]
  inhibition at 1 µM: 3%
Human A2A
  Ki: > 1000 nM
Human A2A; Human A2A, [3H]-CGS 21680 6 nM, TD-8954 1 μM
  % Inhibition of specific binding (1 μM): 16%
Human VPAC2 (VIP2)
  Ki: > 1000 nM
Human VPAC2 (VIP2); [6]
  inhibition at 1 µM: -19%
Human PDE4
  % Inhibition of control (1 μM): −19%
Human M1
  Ki: > 1000 nM
Human D2S
  Ki: > 1000 nM
Human D2S; [6]
  inhibition at 1 µM: 6%
Human CGRP
  Ki: > 1000 nM
Human CCK1 (CCKA)
  Ki: > 1000 nM
Human AT1
  Ki: > 1000 nM
Human AT1; [6]
  inhibition at 1 µM: 2%
Rat α1 (non-selective)
  pKi: <6
Rat α1 (non-selective); TD-8954 1 μM
  % Inhibition of specific binding (1 μM): −1%
Rat AMPA
  pKi: <6
Rat AMPA; TD-8954 1 μM
  % Inhibition of specific binding (1 μM): −4%
Human M3
  Ki: > 10000 nM
[1]
  IC50: > 1000 nM
[1]; [7]
  inhibition at 1 µM: 2%
Human 5-HT2B
  Ki: > 1000 nM
[2]
  pKi: <6
[2]; TD-8954 1 μM
  % Inhibition of specific binding (1 μM): 1%
Rat BB (non-selective)
  pKi: <6
Rat BB (non-selective); TD-8954 1 μM
  % Inhibition of specific binding (1 μM): 4%
Human COX2
  IC50: > 1000 nM
Human COX2; [7]
  inhibition at 1 µM: -36%
Rat PACAP (PAC1)
  Ki: > 1000 nM
Rat PACAP (PAC1); [6]
  inhibition at 1 µM: -3%
Human 5-HT3a
  Ki: > 100000 nM
Human 5-HT5a
  Ki: > 1000 nM
Rat σ (non-selective)
  pKi: <6
Rat kainate
  pKi: <6
Rat kainate; TD-8954 1 μM
  % Inhibition of specific binding (1 μM): −6%
Human D1
  Ki: > 1000 nM
Human D1; [6]
  inhibition at 1 µM: -2%
Human VPAC1 (VIP1)
  Ki: > 1000 nM
Human VPAC1 (VIP1); [6]
  inhibition at 1 µM: 2%
[3]
  pKi: <6
[3]; TD-8954 1 μM
  % Inhibition of specific binding (1 μM): −6%
[4]
  Ki: > 1000 nM
[4]; [6]
  inhibition at 1 µM: 3%
[5]
  pKi: <6
Human NK2
  Ki: > 1000 nM
Human 5-HT2A
  Ki: > 1000 nM
Conscious guinea pigs
  lowest dose tested, significantly active on colonic transit: 0.03 mg/kg
Rat NT (non-selective)
  pKi: <6
Rat NT (non-selective); TD-8954 1 μM
  % Inhibition of specific binding (1 μM): 4%
Rat P2Y
  pKi: <6
Rat P2Y; TD-8954 1 μM
  % Inhibition of specific binding (1 μM): 8%
Human β2
  Ki: > 1000 nM
